From US20240109890A1, “BRIDGED HETEROCYCLYL-SUBSTITUTED PYRIMIDINE COMPOUNDS, PREPARATION METHOD AND MEDICAL USE THEREOF” (THE NATIONAL INSTITUTES OF PHARMACEUTICAL R&D CO., LTD., priority 2021, published 2024) come the findings set out here.

Data set [1] can be described thus: Pharmacokinetic study in rats. The format is in vivo, rat. As to conditions: for F / AUC(0-t) / Cmax / half-life: male SD rats, i.v. 1 mg/kg, p.o. 5 mg/kg; for AUC(0-t) / Cmax / half-life: rat, plasma, route of this value not stated; for pharmacokinetic properties (overall statement): rats. As to the method: Sample preparation: The compounds of Examples 1-a and 1-b were formulated into 0.2 mg/mL and 0.5 mg/mL solutions with 20% cyclodextrin.
Experimental method: Male SD rats (Beijing Vital River Laboratory Animal Technology Co., Ltd.) were used, the intravenous dose was 1 mg/kg (intravenously, i.v). Blood was collected from the canthus venous plexus before administration and at 0, 5 minutes, 15 minutes, 30 minutes, 1 hour, 2 hours, 4 hours, 6 hours and 8 hours after administration. The oral dose was 5 mg/kg (oral, p.o). Blood was collected from the canthus venous plexus before administration and at 15 minutes, 30 minutes, 1 hour, 2 hours, 4 hours, 6 hours and 8 hours after administration. The blood was anticoagulated with sodium heparin, centrifuged at 3500 rpm for 10 minutes at 4° C. The plasma was obtained and stored at −20° C. until testing.
50 μL of the plasma sample melted at room temperature was precisely measured and placed in a 1.5 mL EP tube, followed by adding 400 μL of verapamil internal standard working solution (China National Institute for Drug Control). The EP tube was vortexed vigorously for 1 minute, and centrifuged at 16000 rpm for 10 minutes. The supernatant was collected, filtered with a 0.22 μm organic membrane (AS081320-T, Agela Technologies), and added to an injection vial. The plasma concentration was obtained by LC/MS (Waters UPLC I Class/ TQ-S micro). The main pharmacokinetic parameters of compounds 1-a and 1-b in rats were obtained by DAS3.3.0 software.

The test system of data set [2] is AIA model. The data set is described as follows: AIA pharmacodynamic study in rats (complete Freund's adjuvant, arthritis scoring). The format is in vivo, rat. As to conditions: female Lewis rats, arthritis score; for efficacy in the AIA model versus reference PF-06700841: low dose 1 mg/kg and high dose 3 mg/kg groups. Here is the method:
Experimental materials: Complete Freund's adjuvant (Chondrex, 7027); positive control compound PF-06700841, which has a structure of
Experimental process: The in vivo efficacy of the compounds of the present invention was investigated. 8-Week-old female Lewis rats (Beijing Vital River Laboratory Animal Technology Co., Ltd.) were subcutaneously injected with 0.1 mL of complete Freund's adjuvant at a single site on the base of their tails, and grouped 13 days after modeling. 8 groups were divided: the normal group, the model group, the PF-06700841 low dose group, the PF-06700841 high dose group, the compound 1-a low dose group, the compound 1-a high dose group, the compound 1-b low dose group, and the compound 1-b high dose group (the compounds to be tested were formulated into 0.1 mg/mL and 0.3 mg/mL solutions with 20% cyclodextrin solution). 20% cyclodextrin was administered to the model group, 1 mg/kg of the test compound was administered to the low dose group, and 3 mg/kg of the test compound was administered to the high dose group. The scores were evaluated every 2 days after administration. Scoring criteria: 0 point: no redness and swelling; 1 point: mild redness and swelling of ankle joints and wrist joints; 2 points: moderate redness and swelling of ankle joints and wrist joints; 3 points: severe redness and swelling of the paw including the fingertips; 4 points: maximal inflammation of the extremities, including multiple joints. The scoring results were analyzed by Graph prism9.0 software.
FIG. 1 is a graph showing the rat AIA pharmacodynamic scoring results of the compounds of the present invention.

Data set [3] relates to IFN-2α-stimulated TYK2/JAK1-mediated pathway. The data set is described as follows: Inhibition of STAT3 signaling pathway of human whole blood (IFN-2α induced pSTAT3, flow cytometry). The format is cell-based. As to conditions: IFN-2α stimulation, CD3/pSTAT3 staining. Here is the method:
Sample preparation: The compounds of the present invention and the control were dissolved in DMSO solvent respectively to formulate into 10 mM mother liquor. The final reaction maximum concentration of the compound was 10 μM, 3-fold dilution, 10 concentration gradients, and duplicate wells for each concentration gradient.
Experimental process: 20 μL of the compound of the present invention was added to a flow cytometer tube (BD, 352052) containing 180 μL of anticoagulant sodium heparin. 20 μL of PBS was added to the control tube. The sample was incubated at 37° C. for 30 min. 2 μL of stimulating factor was added and then incubated at 37° C. for 20 min. 1 mL of erythrocyte lysate was added, and the sample was repeatedly inverted 5 to 10 times or vortexed and then incubated at 37° C. for 10 min. The sample was centrifuged at 600 g for 6 to 8 min. The supernatant was discarded. The mixture was vortexed until the precipitate was suspended. The cells were washed with 3 mL of PBS and centrifuged at 600 g for 6 to 8 min. The supernatant was discarded. The mixture was vortexed until the precipitate was suspended. 1 mL of membrane breaking solution was added, and the system was mixed gently, incubated on ice for 30 min, and centrifuged at 600 g for 6 to 8 min. The supernatant was discarded. The mixture was vortexed until the precipitate was suspended. The cells were washed. 3 mL of PBS was added. […]

Data set [4] concerns the target JAK1 kinase (Homo sapiens (Human), UniProt P23458). The data set is described as follows: In vitro inhibitory activity on JAK1 kinase (ADP-Glo Kinase Assay). The format is biochemical. As to conditions: JAK1 4 nM, 1 mM ATP, IRS1 substrate. As to the method: Experimental materials: JAK1 kinase (Invitrogen, PV4744), ATP (Promega, V915B), ADP-Glo Kinase Assay (Promega, V9101), IRS1 (Signalchem, 140-58-1000). Sample preparation: The compounds of the present invention and the control product were dissolved in DMSO solvent respectively to formulate into 10 mM mother liquor. The final reaction maximum concentration of the compound was 10 μM, 3-fold dilution, 10 concentration gradients, and duplicate wells for each concentration gradient. Experimental process: 0.1 μL of the compound to be tested was transferred into a 384-well reaction plate (PE, 6007290) via Echo and centrifuged at 1000 rpm/min for 1 min. 5 μL of JAK1 kinase (final concentration of 4 nM) was transferred into the 384-well reaction plate, which was then centrifuged at 1000 rpm/min for 1 min, and incubated at 25° C. for 15 min. 5 μL of substrate mixture (1 mM ATP, IRS1 0.05 mg/ml, kinase buffer solution) was transferred into the 384-well reaction plate, which was then centrifuged at 1000 rpm/min for 1 min, and incubated at 25° C. for 60 min. 10 μL of ADP-Glo was transferred into the 384-well reaction plate, which was then centrifuged at 1000 rpm/min for 1 min, and incubated at 25° C. for 40 min. 20 μL of test solution was transferred into the 384-well reaction plate, which was then centrifuged at 1000 rpm/min for 1 min and incubated at 25° C. for 40 min. RLU (Relative luminescence unit) signal was read by using an Envision multifunctional plate reader. The signal intensity was used to characterize the degree of the kinase activity. […] IC50 value of 0-100 nM is shown as A, IC50 value of 100-300 nM is shown as B, IC50 value of 300-1000 nM is shown as C, and IC50 value which is greater than 1000 nM is shown as D. NT means not tested.
(ADP-Glo first removes unused ATP, then detects ADP through luciferase.)

Sequence of JAK1 kinase (P23458 whole entry): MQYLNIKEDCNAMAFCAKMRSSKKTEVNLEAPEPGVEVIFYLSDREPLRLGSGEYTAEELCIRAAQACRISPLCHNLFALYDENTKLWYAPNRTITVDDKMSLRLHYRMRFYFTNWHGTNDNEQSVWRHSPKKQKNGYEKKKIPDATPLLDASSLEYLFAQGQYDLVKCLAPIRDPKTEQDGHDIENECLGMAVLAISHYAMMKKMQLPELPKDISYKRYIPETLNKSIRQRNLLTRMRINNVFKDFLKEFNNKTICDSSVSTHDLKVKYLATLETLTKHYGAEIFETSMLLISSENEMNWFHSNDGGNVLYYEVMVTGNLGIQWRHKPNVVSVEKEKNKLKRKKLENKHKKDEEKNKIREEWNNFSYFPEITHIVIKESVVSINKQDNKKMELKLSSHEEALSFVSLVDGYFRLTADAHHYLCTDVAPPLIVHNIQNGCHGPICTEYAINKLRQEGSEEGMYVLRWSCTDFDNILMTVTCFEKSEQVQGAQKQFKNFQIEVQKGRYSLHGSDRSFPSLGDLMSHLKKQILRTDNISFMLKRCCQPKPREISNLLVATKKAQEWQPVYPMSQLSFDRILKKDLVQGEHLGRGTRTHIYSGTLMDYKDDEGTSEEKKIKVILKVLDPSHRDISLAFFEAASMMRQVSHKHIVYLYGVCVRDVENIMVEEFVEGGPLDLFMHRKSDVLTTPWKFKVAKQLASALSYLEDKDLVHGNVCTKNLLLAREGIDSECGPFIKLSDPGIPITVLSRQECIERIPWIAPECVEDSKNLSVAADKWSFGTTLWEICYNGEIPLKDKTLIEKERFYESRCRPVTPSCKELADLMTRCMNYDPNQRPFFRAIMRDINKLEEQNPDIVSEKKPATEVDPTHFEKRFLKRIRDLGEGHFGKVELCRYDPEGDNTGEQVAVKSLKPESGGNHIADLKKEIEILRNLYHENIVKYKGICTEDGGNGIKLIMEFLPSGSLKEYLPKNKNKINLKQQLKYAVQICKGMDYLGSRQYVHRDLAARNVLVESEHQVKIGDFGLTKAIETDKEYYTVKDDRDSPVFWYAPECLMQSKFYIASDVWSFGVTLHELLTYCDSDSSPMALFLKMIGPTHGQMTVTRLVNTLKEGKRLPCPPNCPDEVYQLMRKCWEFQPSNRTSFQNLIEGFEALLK

As usually defined, the AUC(0-t) is the area under the concentration-time curve up to a stated or last time point. As a reminder, the Cmax is the highest concentration seen after dosing. What is called half-life is the time in which the quantity being followed falls by half. The low end stands for fast loss, the high end for slow loss. What is called IC50 is the concentration that gives 50% inhibition. Take `Cn1cc(Nc2nccc(C3=C[C@H]4CC[C@@H](C3)N4C(=O)[C@@H]3C[C@H]3F)n2)cn1` [Compound 1-b, ((1S,2R)-2-fluorocyclopropyl)((1R,5S)-3-(2-((1-methyl-1H-pyrazol-4-yl)amino)pyrimidin-4-yl)-8-azabicyclo[3.2.1]oct-2-en-8-yl)methanone]: in data set [1], the F result is reported as “A (F>50% is shown as A)”, the AUC(0-t) is 500 to 1000 ng·h/mL, the Cmax is 300 to 500 ng/mL and the half-life was more than 1 h. In addition, the “pharmacokinetic properties (overall statement)” value in data set [1] is listed as “good pharmacokinetic properties”. In data set [2], the “efficacy in the AIA model versus reference PF-06700841” value is given as “significantly better than that of the reference PF-06700841”. Besides, the IC50 in data set [3] is less than 100 nM. This compound registered an IC50 in data set [4] of less than 100 nM.

Regarding `Cn1cc(Nc2nccc(C3=C[C@@H]4CC[C@H](C3)N4C(=O)[C@H]3C[C@@H]3F)n2)cn1` [Compound 2-a, ((1R,2S)-2-fluorocyclopropyl)((1S,5R)-3-(2-((1-methyl-1H-pyrazol-4-yl)amino)pyrimidin-4-yl)-8-azabicyclo[3.2.1]oct-2-en-8-yl)methanone], the IC50 in data set [4] lay within 300 to 1000 nM.

For `Cn1cc(Nc2nccc(C3=C[C@@H]4CC[C@H](C3)N4C(=O)[C@@H]3C[C@H]3F)n2)cn1` [Compound 1-a, ((1S,2R)-2-fluorocyclopropyl)((1S,5R)-3-(2-((1-methyl-1H-pyrazol-4-yl)amino)pyrimidin-4-yl)-8-azabicyclo[3.2.1]oct-2en-8-yl)methanone], in data set [1], the F entry was “A (F>50% is shown as A)”, the AUC(0-t) is more than 1000 ng·h/mL, the Cmax is more than 500 ng/mL and the half-life is more than 1 h. Besides, the “pharmacokinetic properties (overall statement)” value in data set [1] is “good pharmacokinetic properties”. Moreover, in data set [2] (1 mg/kg and 3 mg/kg), the “efficacy in the AIA model versus isomer 1-b” value is “significantly better than that of isomer 1-b”. The “efficacy in the AIA model versus reference PF-06700841” value in data set [2] is recorded as “significantly better than that of the reference PF-06700841”. For the same compound, in data set [3], the half-maximal inhibitory concentration (IC50) is less than 100 nM. Also, in data set [4], the IC50 was less than 100 nM.

`Cn1cc(Nc2nccc(C3=CC4CCC(C3)N4C(=O)[C@@H]3C[C@H]3F)n2)cn1` (stereo partly drawn) [Compound 1, ((1S,2R)-2-fluorocyclopropyl)(3-(2-((1-methyl-1H-pyrazol-4-yl)amino)pyrimidin-4-yl)-8-azabicyclo[3.2.1]oct-2-en-8-yl)methanone] registered a concentration for half-maximal inhibition (IC50) in data set [4] of less than 100 nM.

In the case of `Cn1cc(Nc2nccc(C3=CC4CCC(C3)N4C(=O)[C@H]3C[C@@H]3F)n2)cn1` (stereo partly drawn) [Compound 2, ((1R,2S)-2-fluorocyclopropyl)(3-(2-((1-methyl-1H-pyrazol-4-yl)amino)pyrimidin-4-yl)-8-azabicyclo[3.2.1]oct-2-en-8-yl)methanone], the IC50 in data set [4] lay within 300 to 1000 nM.

In data set [4], `Cn1cc(Nc2nccc(C3=C[C@H]4CC[C@@H](C3)N4C(=O)[C@H]3C[C@@H]3F)n2)cn1` [Compound 2-b, ((1R,2S)-2-fluorocyclopropyl)((1R,5S)-3-(2-((1-methyl-1H-pyrazol-4-yl)amino)pyrimidin-4-yl)-8-azabicyclo[3.2.1]oct-2-en-8-yl)methanone] returned an IC50 of 100 to 300 nM.
